Measurements taken from patent US10987359B2, “Oxadiazepinone derivatives and methods of treating hepatitis B infections” (priority 2016, dated 2021).

What follows are molecules tested on HBV (assay: HBV replication inhibition assay (BDNA assay) in HepG2.2.15 cells). Conditions: HBV replication assay (BDNA assay), HepG2.2.15 cells; read-out: DNA EC50.
Format: cell-based
Outline: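 HepG2.2.15 cells with stably integrated HBV were treated with serially diluted compounds at 0.5% DMSO for 6 days, with medium and compound refreshed at day 3. Encapsidated HBV DNA from DNase-treated supernatant was quantified by branched DNA assay. EC50 came from % inhibition versus DMSO, fitted non-linearly.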

For `C[C@@H]1Cc2nn3c(c2CN1C(=O)Nc1cc(Br)c(F)cc1F)C(=O)N(C)OC(CN(C)C)C3` (stereo in doubt) [Compound 100_D2, (4R*,9R)—N-(5-bromo-2,4-difluorophenyl)-4-((dimethylamino)methyl)-2,9-dimethyl-1-oxo-1,4,5,8,9,11-hexahydropyrido[4′,3′:3,4]pyrazolo[5,1-d][1,2,5]oxadiazepine-10(2H)-carboxamide], which EC50 is on record?
Its EC50 is 0.001 to 0.1 µM.

How did the EC50 turn out when `C[C@@H]1Cc2nn3c(c2CN1C(=O)Nc1ccc(F)c(Br)c1)C(=O)N(C)OC(CN)C3` (stereo in doubt) [Compound 117_D2, (4R*,9R)-4-(aminomethyl)-N-(3-bromo-4-fluorophenyl)-2,9-dimethyl-1-oxo-1,4,5,8,9,11-hexahydropyrido[4′,3′:3,4]pyrazolo[5,1-d][1,2,5]oxadiazepine-10(2H)-carboxamide] was run?
The EC50 was 0.001 to 0.1 µM.

With `C[C@@H]1Cc2nn3c(c2CN1C(=O)Nc1cc(Cl)c(F)cc1F)C(=O)N(C)OC(COCC(F)F)C3` (stereo partly drawn) [Compound 127_D1, (45*,9R)—N-(5-chloro-2,4-difluorophenyl)-4-((2,2-difluoroethoxy)methyl)-2,9-dimethyl-1-oxo-1,4,5,8,9,11-hexahydropyrido[4′,3′:3,4]pyrazolo[5,1-d][1,2,5]oxadiazepine-10(2H)-carboxamide] as the molecule, how does the EC50 read?
The EC50 was 0.1 to 0.5 µM.

For `C[C@@H]1Cc2nn3c(c2CN1C(=O)Nc1ccc(F)c(C(F)(F)F)c1)C(=O)N(C)OC(CN(C)C)C3` (stereo in doubt) [Compound 098_D2, (4R*,9R)-4-((dimethylamino)methyl)-N-(4-fluoro-3-(trifluoromethyl)phenyl)-2,9-dimethyl-1-oxo-1,4,5,8,9,11-hexahydropyrido[4′,3′:3,4]pyrazolo[5,1-d][1,2,5]oxadiazepine-10(2H)-carboxamide], which EC50 is on record?
The EC50 was 0.001 to 0.1 µM.

For `COC(=O)NCC1Cn2nc3c(c2C(=O)N(C)O1)CN(C(=O)Nc1ccc(F)c(C(F)(F)F)c1)[C@H](C)C3` (single isomer, unassigned) [Compound 181_D2, methyl (((4R*,9R)-10-((4-fluoro-3-(trifluoromethyl)phenyl)carbamoyl)-2,9-dimethyl-1-oxo-1,2,4,5,8,9,10,11-octahydropyrido[4′,3′:3,4]pyrazolo[5,1-d][1,2,5]oxadiazepin-4-yl)methyl)carbamate], which EC50 is on record?
Its EC50 is 0.001 to 0.1 µM.

`Cc1cc(NC(=O)N2Cc3c(nn4c3C(=O)N(C)OC(CNCC(F)F)C4)C[C@H]2C)ccc1F` (stereo in doubt) [Compound 185_D2, (4R*,9R)-4-(((2,2-difluoroethyl)amino)methyl)-N-(4-fluoro-3-methylphenyl)-2,9-dimethyl-1-oxo-1,4,5,8,9,11-hexahydropyrido[4′,3′:3,4]pyrazolo[5,1-d][1,2,5]oxadiazepine-10(2H)-carboxamide] was tested. Which EC50 did it give?
Its EC50 is 0.001 to 0.1 µM.

Same assay, conditions: Hepatitis B virus, HepG2.2.15, HBV replication assay (BDNA assay), HepG2.2.15 cells; read-out: DNA EC50

Which EC50 does the source give for `COCC1Cn2nc3c(c2C(=O)N(C)O1)CN(C(=O)Nc1ccc(F)c(Cl)c1)CC3` (stereo not drawn) [Compound 065, N-(3-chloro-4-fluoro-phenyl)-4-(methoxymethyl)-2-methyl-1-oxo-5,8,9,11-tetrahydro-4H-pyrido[2,3]pyrazolo[2,4-d][1,2,5]oxadiazepine-10-carboxamide] here?
Its EC50 is 0.001 to 0.1 µM.

Which EC50 does the source give for `C[C@@H]1Cc2nn3c(c2CN1C(=O)Nc1ccc(F)c(Cl)c1F)C(=O)N(C)OC(C(=O)N(C)CC(F)F)C3` (stereo in doubt) [Compound 152_D2, (4R*,9R)—N10-(3-chloro-2,4-difluorophenyl)-N4-(2,2-difluoroethyl)-N4,2,9-trimethyl-1-oxo-1,4,5,8,9,11-hexahydropyrido[4′,3′:3,4]pyrazolo[5,1-d][1,2,5]oxadiazepine-4,10(2H)-dicarboxamide] here?
Its EC50 is 0.001 to 0.1 µM.

With `C[C@@H]1Cc2nn3c(c2CN1C(=O)Nc1ccc(F)c(C(F)(F)F)c1)C(=O)N(C)N(C)CC3` [Compound 225, (R)-N-(4-fluoro-3-(trifluoromethyl)phenyl)-2,3,9-trimethyl-1-oxo-1,2,3,4,5,8,9,11-octahydro-10H-pyrido[4′,3′:3,4]pyrazolo[5,1-d][1,2,5]triazepine-10-carboxamide] as the molecule, how does the EC50 read?
Its EC50 is 0.001 to 0.1 µM.

How did the EC50 turn out when `CN1OC(CO)Cn2nc3c(c2C1=O)CN(C(=O)Nc1ccc(F)c(Cl)c1Cl)CC3` (stereo not drawn) [Compound 023, N-(2,3-dichloro-4-fluorophenyl)-4-(hydroxymethyl)-2-methyl-1-oxo-1,4,5,8,9,11-hexahydropyrido[4′,3′:3,4]pyrazolo[5,1-d][1,2,5]oxadiazepine-10(2H)-carboxamide] was run?
The EC50 was 0.001 to 0.1 µM.

`CN(CC(F)(F)F)C(=O)C1Cn2nc3c(c2C(=O)N(C)O1)CN(C(=O)Nc1ccc(F)c(Cl)c1)CC3` (stereo not drawn) [Compound 133, N10-(3-chloro-4-fluorophenyl)-N4,2-dimethyl-1-oxo-N4-(2,2,2-trifluoroethyl)-1,4,5,8,9,11-hexahydropyrido[4′,3′:3,4]pyrazolo[5,1-d][1,2,5]oxadiazepine-4,10(2H)-dicarboxamide] was tested. Which EC50 did it give?
Its EC50 is 0.001 to 0.1 µM.

Which EC50 does the source give for `COC(=O)OCC1Cn2nc3c(c2C(=O)N(C)O1)CN(C(=O)Nc1ccc(F)c(Cl)c1)CC3` (stereo not drawn) [Compound 051, (10-((3-chloro-4-fluorophenyl)carbamoyl)-2-methyl-1-oxo-1,2,4,5,8,9,10,11-octahydropyrido[4′,3′:3,4]pyrazolo[5,1-d][1,2,5]oxadiazepin-4-yl)methyl methyl carbonate] here?
The EC50 was 0.001 to 0.1 µM.

How did the EC50 turn out when `CCCN1OCCn2nc3c(c2C1=O)CN(C(=O)Nc1ccc(F)c(Cl)c1)CC3` [Compound 068, N-(3-chloro-4-fluoro-phenyl)-1-oxo-2-propyl-5,8,9,11-tetrahydro-4H-pyrido[2,3]pyrazolo[2,4-c][1,2,5]oxadiazepine-10-carboxamide] was run?
Its EC50 is 0.001 to 0.1 µM.

`CN1OC(CO)Cn2nc3c(c2C1=O)CN(C(=O)Nc1cccc(I)c1)CC3` (stereo not drawn) [Compound 020, 4-(hydroxymethyl)-N-(3-iodophenyl)-2-methyl-1-oxo-1,4,5,8,9,11-hexahydropyrido[4′,3′:3,4]pyrazolo[5,1-d][1,2,5]oxadiazepine-10(2H)-carboxamide] was tested. Which EC50 did it give?
Its EC50 is 0.001 to 0.1 µM.

How did the EC50 turn out when `CSCC1Cn2nc3c(c2C(=O)N(C)O1)CN(C(=O)Nc1ccc(F)c(Cl)c1)CC3` (stereo not drawn) [Compound 048, N-(3-chloro-4-fluoro-phenyl)-2-methyl-4-(methylsulfanylmethyl)-1-oxo-5,8,9,11-tetrahydro-4H-pyrido[2,3]pyrazolo[2,4-d][1,2,5]oxadiazepine-10-carboxamide] was run?
Its EC50 is 0.001 to 0.1 µM.

Which EC50 does the source give for `C[C@@H]1Cc2nn3c(c2CN1C(=O)Nc1ccc(F)c(C(F)(F)F)c1)C(=O)N(C)OC(C)(C)C3` [Compound 214, (5R)—N-[4-Fluoro-3-(trifluoromethyl)phenyl]-5,11,11,13-tetramethyl-14-oxo-12-oxa-4,8,9,13-tetrazatricyclo[7.5.0.0^2.7]tetradeca-1,7-diene-4-carboxamide] here?
The EC50 was 0.001 to 0.1 µM.

For `CN1OC(CNCC(F)F)Cn2nc3c(c2C1=O)CN(C(=O)Nc1cc(Br)c(F)cc1F)CC3` (single isomer, unassigned) [Compound 193_E1, (S*)—N-(5-bromo-2,4-difluorophenyl)-4-(((2,2-difluoroethyl)amino)methyl)-2-methyl-1-oxo-1,4,5,8,9,11-hexahydropyrido[4′,3′:3,4]pyrazolo[5,1-d][1,2,5]oxadiazepine-10(2H)-carboxamide], which EC50 is on record?
Its EC50 is 0.001 to 0.1 µM.

`CN1OC(COCC(F)(F)F)Cn2nc3c(c2C1=O)CN(C(=O)Nc1ccc(F)c(C#N)c1)CC3` (single isomer, unassigned) [Compound 211, (S*)—N-(3-cyano-4-fluorophenyl)-2-methyl-1-oxo-4-((2,2,2-trifluoroethoxy)methyl)-1,4,5,8,9,11-hexahydropyrido[4′,3′:3,4]pyrazolo[5,1-d][1,2,5]oxadiazepine-10(2H)-carboxamide] was tested. Which EC50 did it give?
Its EC50 is 0.001 to 0.1 µM.

How did the EC50 turn out when `CN1O[C@H](CNCC(F)F)Cn2nc3c(c2C1=O)CN(C(=O)Nc1ccc(F)c(C(F)(F)F)c1)CC3` (stereo in doubt) [Compound 194_E1, (S*)-4-4(2,2-difluoroethyl)amino)methyl)-N-(4-fluoro-3-(trifluoromethyl)phenyl)-2-methyl-1-oxo-1,4,5,8,9,11-hexahydropyrido[4′,3′:3,4]pyrazolo[5,1-d][1,2,5]oxadiazepine-10(2H)-carboxamide] was run?
Its EC50 is 0.001 to 0.1 µM.

How did the EC50 turn out when `CN1OC(CO)Cn2nc3c(c2C1=O)CN(C(=O)Nc1cc(C(F)(F)F)c(F)cc1F)CC3` (single isomer, unassigned) [Compound 147_E1, (S*)—N-(2,4-difluoro-5-(trifluoromethyl)phenyl)-4-(hydroxymethyl)-2-methyl-1-oxo-1,4,5,8,9,11-hexahydropyrido[4′,3′:3,4]pyrazolo[5,1-d][1,2,5]oxadiazepine-10(2H)-carboxamide] was run?
The EC50 was 0.001 to 0.1 µM.

For `CN1OC(CNCC(F)F)Cn2nc3c(c2C1=O)CN(C(=O)Nc1ccc(F)c(C#N)c1F)CC3` (single isomer, unassigned) [Compound 186_E1, (S*)—N-(3-cyano-2,4-difluorophenyl)-4-(((2,2-difluoroethyl)amino)methyl)-2-methyl-1-oxo-1,4,5,8,9,11-hexahydropyrido[4′,3′:3,4]pyrazolo[5,1-d][1,2,5]oxadiazepine-10(2H)-carboxamide], which EC50 is on record?
The EC50 was 0.001 to 0.1 µM.

With `CN1OC(C(=O)NCC(F)F)Cn2nc3c(c2C1=O)CN(C(=O)Nc1ccc(F)c(Cl)c1)CC3` (stereo not drawn) [Compound 136, N10-(3-chloro-4-fluorophenyl)-N4-(2,2-difluoroethyl)-2-methyl-1-oxo-1,4,5,8,9,11-hexahydropyrido[4′,3′:3,4]pyrazolo[5,1-d][1,2,5]oxadiazepine-4,10(2H)-dicarboxamide] as the molecule, how does the EC50 read?
Its EC50 is 0.001 to 0.1 µM.

For `CN1OC(CF)Cn2nc3c(c2C1=O)CN(C(=O)Nc1ccnc(Br)c1F)CC3` (single isomer, unassigned) [Compound 041_E1, (S*)—N-(2-bromo-3-fluoropyridin-4-yl)-4-(fluoromethyl)-2-methyl-1-oxo-1,4,5,8,9,11-hexahydropyrido[4′,3′:3,4]pyrazolo[5,1-d][1,2,5]oxadiazepine-10(2H)-carboxamide], which EC50 is on record?
Its EC50 is 0.001 to 0.1 µM.

With `CN1OC(CO)Cn2nc3c(c2C1=O)CN(C(=O)Nc1cc(F)c(F)c(F)c1F)CC3` (single isomer, unassigned) [Compound 151_E1, (S*)-4-(hydroxymethyl)-2-methyl-1-oxo-N-(2,3,4,5-tetrafluorophenyl)-1,4,5,8,9,11-hexahydropyrido[4′,3′:3,4]pyrazolo[5,1-d][1,2,5]oxadiazepine-10(2H)-carboxamide] as the molecule, how does the EC50 read?
The EC50 was 0.001 to 0.1 µM.
